Tested on: HD-Drosophila expressing mutant HTT97Q
Assay: Rough eye phenotype in HD-Drosophila (Gmr-HTT97Q)
Assay type: in vivo, Drosophila melanogaster
Conditions: 10 μM 6CR plus 100 μM Tropolone in media
Method: The Gmr-ga14-UAS-HTT97Q/cyo line expressing HTT97Q under the control of Gmr-gal4 in compound eyes was provided by MT SU (National Taiwan Normal University, Taipei, Taiwan). Fly stock was maintained and crossed at 25° C. on a standard cornmeal yeast agar medium.
In each compound treatment experiment, 15 Gmr-ga14-UAS-HTT97Q/cyo male flies were crossed with 15 Gmr-ga14-UAS-HTT-97Q/cyo females in a vial containing 10 mL of media supplemented with the testing compound at a final concentration of 10 μM 6CR (Sigma) or/and 100 μM Tropolone (Sigma). 6-chloropurine riboside (6CR) is a chemical reagent that inhibits the activity of SUPT4H by preventing the complex formation of SUPT4H/SUPT5H (Patent No.: US2018/0064744A1). Parent flies were removed after 7 days, and 4-day-old progenies carrying one Gmr-ga14-UAS-HTT97Q allele were collected for eye morphology examination. […] In each treatment group, flies were analyzed and normalized with control flies. […]
Please refer to FIG. 8. […] After parent fly removal, the 4-day-old progenies carrying one Gmr-ga14-UAS-HTT97Q allele were collected and analyzed for eye morphology. […] 4-day-old progenies as described above were collected and analyzed the levels of mutant HTT by Western blotting. α-tubulin was included and served as a loading control. […]

Question: O=c1cccccc1O [Tropolone] was tested. Which “rescue effect of rough eye phenotype by 6CR with co-treatment of Tropolone” value did it give?
Answer: Its value is “greatly improved”.

Source: US11891601B2, “Method to enhance the transcription regulation of SUPT4H on genes containing repetitive nucleotide sequences” (National Yang-Ming University, priority 2018, dated 2024)
